Some test systems named below: M19-MEL melanoma; LXFL 529 NSCLC; SNB-78 CNS; KM20L2 colon; DMS 114 small cell lung; DLD-1 colon; HOP-18 NSCLC; XF 498 CNS; RXF-631 renal.
Assay in all cases: inhibition of tumour cell growth, NCI panel, 48 h

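Grown in 96-well plates, cells were treated for 48 hours with each compound at five concentrations. Insufficient inhibition: endpoint recorded as highest concentration tested. Definition used: TGI = concentration required for complete inhibition of growth.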 Some results are limits rather than exact numbers.

On to `C[C@]12CCc3nn(-c4ccccc4)nc3C1CC[C@@H]1C2CC[C@]2(C)C(=O)CCC12` (stereo not given in full), for which the TGI with M19-MEL melanoma, in the test with LXFL 529 NSCLC, with SNB-78 CNS, in the test with KM20L2 colon, in the test with DMS 114 small cell lung and with DLD-1 colon was > 100 µM in each case. In addition, the TGI in the test with HOP-18 NSCLC was > 100 µM.
As for `CCCC(C(=O)OC)C1N=C(NC#N)N(Cc2ccccc2)C1=O` (stereo not given), the TGI with M19-MEL melanoma, in the test with LXFL 529 NSCLC, in the test with KM20L2 colon, in the test with DMS 114 small cell lung, in the test on DLD-1 colon and in the test on XF 498 CNS was > 100 µM throughout.
For `CC(N)C(C)c1ccccc1` (stereo not given), the TGI with LXFL 529 NSCLC, with SNB-78 CNS, in the test on KM20L2 colon, in the test with DMS 114 small cell lung, with DLD-1 colon and in the test on XF 498 CNS was > 100 µM in each case. Besides, the TGI in the test on HOP-18 NSCLC was > 100 µM.
In the case of `COc1ccc(-c2cc(=O)c3cc(O)ccc3o2)c(OC)c1OC`, the TGI with M19-MEL melanoma is > 100 µM; in the test on LXFL 529 NSCLC, > 100 µM; in the test on RXF-631 renal, > 100 µM; in the test with KM20L2 colon, 58.1 µM; in the test with DMS 114 small cell lung, > 100 µM; in the test on DLD-1 colon it was > 100 µM. Further, the TGI with XF 498 CNS was > 100 µM.
Consider `CC(C)C(CCOS(=O)(=O)O)CCC(C)[C@H]1[C@@H](O)C(O)C2[C@]3(O)C[C@@H](O)C4(O)C[C@@H](O)CC[C@]4(C)C3CC[C@@]21C` (stereo not given in full), for which the TGI with M19-MEL melanoma, in the test on LXFL 529 NSCLC, in the test on SNB-78 CNS, in the test on KM20L2 colon, in the test on DMS 114 small cell lung and with DLD-1 colon was > 100 µM each time. In addition, the TGI in the test on XF 498 CNS and with HOP-18 NSCLC was > 100 µM each time.
`N#C/C(=C\c1ccc[nH]1)C(=O)c1ccccc1`: the TGI in the test on M19-MEL melanoma, with LXFL 529 NSCLC, in the test with SNB-78 CNS, in the test with RXF-631 renal, in the test with KM20L2 colon and in the test on DMS 114 small cell lung was > 100 µM throughout. Also, the TGI in the test on DLD-1 colon and in the test with HOP-18 NSCLC was > 100 µM throughout.
As for `Cn1c(=O)n(C2(C)CSC2)c2ccccc21`, the TGI with M19-MEL melanoma, in the test with LXFL 529 NSCLC, with KM20L2 colon, in the test with DMS 114 small cell lung, in the test with DLD-1 colon and in the test with XF 498 CNS was > 100 µM throughout.
Turning to `CCN(/N=C1\CC2C=CCN(C2)C(=O)Cc2c1[nH]c1ccccc21)S(=O)(=O)c1ccc(C)cc1` (stereo not given), the TGI in the test with M19-MEL melanoma, in the test on RXF-631 renal, in the test on KM20L2 colon, in the test on DMS 114 small cell lung, in the test on DLD-1 colon and in the test with XF 498 CNS was > 100 µM in each case.
In the case of `C/C(CCN(C)C)=N\OC(=O)c1ccccc1`, the TGI with M19-MEL melanoma, in the test on LXFL 529 NSCLC, with SNB-78 CNS, with KM20L2 colon, in the test on DMS 114 small cell lung and in the test with DLD-1 colon was > 100 µM in each case. The TGI in the test on HOP-18 NSCLC turned out to be 8.9 µM.
With `CCN(CC)C(=O)CC12CCCCC1=Nc1ccccc12` (stereo not given), the TGI in the test with M19-MEL melanoma, with LXFL 529 NSCLC, with SNB-78 CNS, in the test with RXF-631 renal, in the test with KM20L2 colon and in the test with DLD-1 colon was > 100 µM in each case. In addition, the TGI in the test with XF 498 CNS and in the test with HOP-18 NSCLC was > 100 µM each time.
As for `CC1=CC[C@@H](C(C)(C)O)C[C@@H]1O`, the TGI in the test on M19-MEL melanoma, in the test on LXFL 529 NSCLC, with SNB-78 CNS, in the test with RXF-631 renal, in the test with KM20L2 colon and in the test on DMS 114 small cell lung was > 5000 µM throughout. Further, the TGI with DLD-1 colon and with XF 498 CNS was > 5000 µM throughout.
Turning to `C=C1CN2CCc3c([nH]c4ccccc34)C2CC1CC(=O)N(C)C` (stereo not given), the TGI in the test with M19-MEL melanoma, with LXFL 529 NSCLC, in the test with KM20L2 colon, in the test with DMS 114 small cell lung, in the test on DLD-1 colon and in the test on XF 498 CNS was > 309 µM throughout. The TGI in the test with HOP-18 NSCLC was > 309 µM.
Regarding `CSC1=Nc2ccccc2N=C(c2ccccc2)C1`, the TGI is > 100 µM in the test with M19-MEL melanoma; > 100 µM with LXFL 529 NSCLC; > 100 µM in the test with SNB-78 CNS; > 100 µM in the test with RXF-631 renal; > 100 µM in the test on KM20L2 colon; 65.5 µM in the test on DMS 114 small cell lung. The TGI with DLD-1 colon, with XF 498 CNS and in the test with HOP-18 NSCLC was > 100 µM throughout.
In the case of `COC(=O)C(C(=O)C(=O)Nc1ccccc1C)c1nc2ccc([N+](=O)[O-])cc2[nH]c1=O` (stereo not given), the TGI with M19-MEL melanoma, with LXFL 529 NSCLC, in the test on SNB-78 CNS, in the test with KM20L2 colon, in the test with DMS 114 small cell lung and in the test with DLD-1 colon was > 100 µM each time. In addition, the TGI with XF 498 CNS and in the test with HOP-18 NSCLC was > 100 µM each time.
With `COC(=O)C1=CCC2c3[nH]c4ccccc4c3CCN2C1` (stereo not given), the TGI with M19-MEL melanoma, with LXFL 529 NSCLC, with KM20L2 colon, in the test with DMS 114 small cell lung and in the test on DLD-1 colon was > 354 µM in each case.
On to `CC(=O)O[C@@H]1CC[C@@]2(C)C(=O)C34C[C@@]5(C)C([C@@H](C)CCCC(C)C)CCC5(C)[C@](O)(O3)C(=O)[C@H]4C2C1(C)C` (stereo not given in full), for which the TGI with M19-MEL melanoma was determined as 27.3 µM; with LXFL 529 NSCLC, 30.4 µM; in the test with SNB-78 CNS it was 48.2 µM; in the test with RXF-631 renal it was 34.2 µM; in the test with KM20L2 colon, 32.5 µM; with DMS 114 small cell lung, 33.6 µM. Besides, the TGI in the test on DLD-1 colon was 34.7 µM; in the test with HOP-18 NSCLC it was 29.5 µM.
